Reference: US6140367A, “Use of ethylene diamine disuccinate for preparing a medicament with antiviral properties” (priority 1996, dated 2000)
Values after ≈ are worked out from the molar mass of the structure shown. “Also recorded” adds a separate entry of the source. Like-named read-outs stand apart in the source and are kept apart here.

Columns and labels:
in vitro = format: cell-based; conditions: human, hff cells
Procedure: (§1) Human foreskin fibroblasts (HFF) are grown in a nutrient medium consisting of Eagle's minimal essential medium (EMEM) to which 10% fetal calf serum has been added.
(§2) The cell vitality is measured in an HFF cell culture using an MTT assay. The result is expressed as the TC50 value, which is the concentration at which 50% of the cells tested are still vital. In HFF cells, it is 435 μg/ml for the substances according to the invention.

[1] = tested on: cytomegaloviruses (CMV laboratory strain AD169); assay: ELISA of production of CMV late antigens in HFF cells; format: cell-based; conditions: for therapeutic index: quotient TC50/IC50, HFF cells
Procedure: Antiviral activity: cells and viruses employed
as §1
The CMV laboratory strain AD169 is used. The viruses are propagated in EMEM nutrient medium to which 4% fetal calf serum has been added (maintenance medium). The virus titer is established by determining so-called immediate early antigen forming units (IEFUs) which are formed in the maintenance medium (Gerna et al. (1992), Antiviral Res. Vol. 19: 333-345).
The antiviral effect of the substances on the propagation of cytomegaloviruses is determined by different parameters:
In an ELISA (enzyme-linked immunosorbent assay), the production of CMV late antigens is determined. […] The substances according to the invention have an IC50 value of 4 μg/ml±1 μg/ml.

[2] = tested on: Human foreskin fibroblasts (HFF); assay: in vitro; format: cell-based; conditions: hff cells
Procedure: as §1, §2

Epstein-Barr viruses = conditions: literature; cited from earlier work
viral DNA polymerases = conditions: cited from earlier work
human cytomegaloviruses = conditions: literature; cited from earlier work
Varicella zoster viruses = conditions: literature; cited from earlier work
hepatitis viruses = conditions: literature, cell cultures; cited from earlier work
[3] = tested on: viral reverse transcriptases; conditions: cited from earlier work
Herpes simplex viruses = conditions: literature; cited from earlier work
[4] = cited from earlier work
antibody production = conditions: intraperitoneal, mice; cited from earlier work
phospholipase D = conditions: cited from earlier work
B cells = conditions: in vitro; cited from earlier work
T cells = conditions: in vitro; cited from earlier work
phospholipase C = conditions: cited from earlier work
[5] = tested on: DTH (delayed type hypersensitivity) reaction; conditions: intraperitoneal, mice; cited from earlier work
lymphocyte proliferation = assay: phytohemagglutinin stimulated lymphocyte proliferation ([3H]-thymidine); format: cell-based
Procedure: For a proliferation assay, lymphocyte cultures were started in mixed lymphocyte cultures (MLC), or with 1% phytohemagglutinin (PHA), in a total volume of 200 μl of culture medium. 18 to 20 hours before the measurement, 0.1 μCi methyl-[^3 H]-thymidine (NEN, Germany) was added. Radiolabeled DNA was harvested on filter membranes (Schleicher & Schull, Germany). The radioactivity was quantified with a scintillation counter (Zinsser, Germany). The sample PBL pertains to peripheral blood lymphocytes as a control.

[6] = mouse, in vivo; cited from earlier work
[7] = literature; cited from earlier work
[8] = Human betaherpesvirus 5, AD169, production of CMV late antigens, ELISA, HFF cells, read-out: inhibitory concentration IC50
[9] = production of CMV late antigens, ELISA, HFF cells

O=C(O)C[C@H](NCCN[C@H](CC(=O)O)C(=O)O)C(=O)O [(R,S)-N,N'-ethylenediamine disuccinate]
CC50 (in vitro): ≥ 100 µg/mL | IC50 [1, 8]: 46 µg/mL | therapeutic index [1]: ≥ 2.2

O=C(O)CC[C@H](NCCN[C@@H](CCC(=O)O)C(=O)O)C(=O)O [(S,S)-N,N'-ethylenediamine diglutamate]
CC50 (in vitro): ≥ 100 µg/mL | IC50 [1, 8]: ≥ 100 µg/mL

(R,R)-N,N'-propylenediamine disuccinate
toxic concentration TC50 [2]: ≥ 100 µg/mL | inhibitory concentration IC50 [1, 9]: ≥ 100 µg/mL

O=C(O)P(=O)(O)O [Foscarnet]
antiviral activity, Epstein-Barr viruses (Epstein-Barr viruses): selective activity | inhibition of viral DNA polymerases (viral DNA polymerases): inhibition | antiviral activity, cytomegaloviruses (human cytomegaloviruses): virostatic effect | resistance of cytomegaloviruses (human cytomegaloviruses): more resistant | antiviral activity, Varicella zoster viruses (Varicella zoster viruses): selective activity | antiviral activity, hepatitis viruses (hepatitis viruses): selective activity | inhibition of viral reverse transcriptases [3]: inhibition | antiviral activity, Herpes simplex viruses (Herpes simplex viruses): selective activity

O=C(O)CN(CCN(CC(=O)O)CC(=O)O)CCN(CC(=O)O)CC(=O)O [diethylenetriaminepentaacetic acid]
CC50 (in vitro): 123 µg/mL (≈ 313 µM) | IC50 [1, 8]: 4 µg/mL (≈ 10.2 µM) | therapeutic index [1]: 31

O=C(O)C[C@H](NCCN[C@@H](CC(=O)O)C(=O)O)C(=O)O [(S,S)-N,N'-ethylenediamine disuccinate]
toxicity in mice [4]: relatively low | antibody production (antibody production): suppressed | inhibition of phospholipase D (phospholipase D): inhibits | blastogenesis of B cells (B cells): suppressed | blastogenesis of T cells (T cells): suppressed | inhibition of phospholipase C (phospholipase C): inhibits | DTH (delayed type hypersensitivity) reaction [5]: suppressed | CC50 (in vitro): 435 µg/mL | immunosuppressive activity (lymphocyte proliferation): inhibition of phytohemagglutinin stimulated lymphocyte proliferation | IC50 ([1]; Human betaherpesvirus 5, AD169, HFF, activity against cytomegaloviruses, read-out: IC50): 4 µg/mL | therapeutic index [1]: 109

CC(CN[C@@H](CCC(=O)O)C(=O)O)N[C@@H](CCC(=O)O)C(=O)O (stereo partly drawn) [(S,S)-N,N'-propylenediamine diglutamate]
toxic concentration TC50 [2]: ≥ 100 µg/mL | inhibitory concentration IC50 [1, 9]: ≥ 100 µg/mL

Nc1nc(O)c2ncn(COC(CO)CO)c2n1 [Ganciclovir]
antiviral activity, Epstein-Barr viruses (Epstein-Barr viruses): effective | tumor development [6]: observed to develop tumors | resistance of cytomegaloviruses (human cytomegaloviruses): more resistant | antiviral activity, Varicella zoster viruses (Varicella zoster viruses): effective | toxicity / side effects [7]: high side-effect level; also recorded: leads to neutropenia | antiviral activity, Herpes simplex viruses (Herpes simplex viruses): effective

O=C(O)C[C@@H](NCCN[C@H](CC(=O)O)C(=O)O)C(=O)O [(R,R)-N,N'-ethylenediamine disuccinate]
CC50 (in vitro): ≥ 100 µg/mL | IC50 [1, 8]: 41 µg/mL | therapeutic index [1]: ≥ 2.2

CC(CN[C@@H](CC(=O)O)C(=O)O)N[C@@H](CC(=O)O)C(=O)O (stereo partly drawn) [(S,S)-N,N'-propylenediamine disuccinate]
toxic concentration TC50 [2]: ≥ 100 µg/mL | inhibitory concentration IC50 [1, 9]: ≥ 100 µg/mL

CC(=O)N(O)CCCCCNC(=O)CCC(=O)N(O)CCCCCNC(=O)CCC(=O)N(O)CCCCCN [desferrioxamine]
antiviral activity, Epstein-Barr viruses (Epstein-Barr viruses): successfully used | antiviral activity, cytomegaloviruses (human cytomegaloviruses): successfully used | antiviral activity, Varicella zoster viruses (Varicella zoster viruses): successfully used | toxicity / side effects [7]: low toxicity | CC50 (in vitro): 12 µg/mL (≈ 21.4 µM) | IC50 [1, 8]: 4.1 µg/mL (≈ 7.31 µM) | therapeutic index [1]: 3 | antiviral activity, Herpes simplex viruses (Herpes simplex viruses): successfully used
